Where two headings read alike, the source gives them in different places.
Key:
[1] = target: human CB1 receptor (hCB1) (Homo sapiens, UniProt P21554); experiment: cell-based; type: cell-based
Summary of the method: (§1)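 Agonism or inverse agonism was assessed as change in intracellular cAMP in CHO-K1 cells expressing human CB1 or rat CB2 (genomic DNA, pcDNA3.1).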

rat CB2 receptor (rCB2) = target: T1, rat CB2 receptor (rCB2) (Rattus norvegicus, UniProt Q9QZN9); experiment: cell-based; type: cell-based; details: for +/− RCB2: agonist or inverse agonist at rCB2
T1 sequence (Q9QZN9 1-360): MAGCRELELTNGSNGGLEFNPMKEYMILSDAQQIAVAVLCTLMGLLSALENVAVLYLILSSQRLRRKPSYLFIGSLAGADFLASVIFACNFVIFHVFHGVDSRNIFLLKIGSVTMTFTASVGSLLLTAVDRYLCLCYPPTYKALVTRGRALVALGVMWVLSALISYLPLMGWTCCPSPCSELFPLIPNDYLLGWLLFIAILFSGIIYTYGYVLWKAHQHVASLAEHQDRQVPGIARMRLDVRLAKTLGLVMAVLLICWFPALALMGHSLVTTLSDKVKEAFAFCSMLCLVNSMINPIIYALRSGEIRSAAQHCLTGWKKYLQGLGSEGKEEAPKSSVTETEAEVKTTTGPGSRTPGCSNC
Summary of the method: as §1

[2] = groups >100 nM-10 μM and >10 μM, cAMP, CHO-K1 hCB1, read-out: EC50 HCB1

Sequence of human CB1 receptor (hCB1) (P21554 whole entry): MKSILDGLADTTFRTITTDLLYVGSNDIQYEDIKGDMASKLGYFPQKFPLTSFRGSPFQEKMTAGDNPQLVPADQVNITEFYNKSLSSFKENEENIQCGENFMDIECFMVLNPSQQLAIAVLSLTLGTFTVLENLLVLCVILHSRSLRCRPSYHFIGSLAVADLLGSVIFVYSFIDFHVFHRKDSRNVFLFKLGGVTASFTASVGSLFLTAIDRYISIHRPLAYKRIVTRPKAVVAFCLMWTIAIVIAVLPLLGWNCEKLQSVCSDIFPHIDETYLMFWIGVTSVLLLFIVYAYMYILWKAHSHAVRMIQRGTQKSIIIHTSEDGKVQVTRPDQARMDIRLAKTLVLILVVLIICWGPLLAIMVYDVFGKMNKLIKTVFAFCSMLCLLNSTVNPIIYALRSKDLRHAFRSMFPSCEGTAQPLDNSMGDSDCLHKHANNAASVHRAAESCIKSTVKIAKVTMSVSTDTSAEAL

SMILES	EC50 [1, 2]	+/− RCB2 (rat CB2 receptor (rCB2))	EC50 [1]	EC50 (rat CB2 receptor (rCB2))
O=C(c1nc(-c2ccccc2)n2c1CN(S(=O)(=O)c1ccc(F)cc1)CC2)N1CCOCC1 [Compound 105, (7-(4-fluorophenylsulfonyl)-3-phenyl-5,6,7,8-tetrahydroimidazo[1,5-a]pyrazine-1-yl)(morpholino)methanone]	> 10000 nM	−		
CNC(=O)[C@@H](NC(=O)c1nc(-c2ccccc2)n2c1CN(S(=O)(=O)c1ccc(Cl)cc1)CC2)C(C)(C)C [Compound 106, (S)-7-(4-chlorophenylsulfonyl)-N-(3,3-dimethyl-1-(methylamino)-1-oxobutan-2-yl)-3-phenyl-5,6,7,8-tetrahydroimidazo[1,5-a]pyrazine-1-carboxamide]		−	> 10000 nM	
CNC(=O)[C@H](C)NC(=O)c1nc(-c2ccccc2)n2c1CN(S(=O)(=O)c1ccc(F)cc1)CC2 [Compound 110, (S)-7-(4-fluorophenylsulfonyl)-N-(1-(methylamino)-1-oxopropan-2-yl)-3-phenyl-5,6,7,8-tetrahydroimidazo[1,5-a]pyrazine-1-carboxamide]		+	> 10000 nM	
CCS(=O)(=O)N1CCn2c(-c3ccccc3)nc(C(=O)N[C@H](C)C3CCCCC3)c2C1 [Compound 111, (R)-N-(1-cyclohexylethyl)-7-(ethylsulfonyl)-3-phenyl-5,6,7,8-tetrahydroimidazo[1,5-a]pyrazine-1-carboxamide]			> 10000 nM	> 10 µM
CCS(=O)(=O)N1CCn2c(-c3ccccc3)nc(C(=O)NC3C4(C)CCC(C4)C3(C)C)c2C1 (stereo not drawn) [Compound 112, 7-(ethylsulfonyl)-3-phenyl-N-(1,3,3-trimethylbicyclo[2.2.1]heptan-2-yl)-5,6,7,8-tetrahydroimidazo[1,5-a]pyrazine-1-carboxamide]		−	> 10000 nM	
CCS(=O)(=O)N1CCn2c(-c3ccccc3)nc(C(=O)N[C@@H](C)c3ccccc3)c2C1 [Compound 113, (S)-7-(ethylsulfonyl)-3-phenyl-N-(1-phenylethyl)-5,6,7,8-tetrahydroimidazo[1,5-a]pyrazine-1-carboxamide]		−	> 10000 nM	
CCS(=O)(=O)N1CCn2c(-c3ccccc3)nc(C(=O)Nc3ccccc3)c2C1 [Compound 114, 7-(ethylsulfonyl)-N,3-diphenyl-5,6,7,8-tetrahydroimidazo[1,5-a]pyrazine-1-carboxamide]	> 10000 nM	−		
CCS(=O)(=O)N1CCn2c(-c3ccccc3)nc(C(=O)NN3CCCCC3)c2C1 [Compound 115, 7-(ethylsulfonyl)-3-phenyl-N-(piperidin-1-yl)-5,6,7,8-tetrahydroimidazo[1,5-a]pyrazine-1-carboxamide]	> 10000 nM	−		
CCS(=O)(=O)N1CCn2c(-c3ccc(Cl)cc3)nc(C(=O)NCCC(C)C)c2C1 [Compound 116, 3-(4-chlorophenyl)-7-(ethylsulfonyl)-N-isopentyl-5,6,7,8-tetrahydroimidazo[1,5-a]pyrazine-1-carboxamide]		−	> 10000 nM	
CCS(=O)(=O)N1CCn2c(-c3ccccc3)nc(C(=O)NCC3CCOCC3)c2C1 [Compound 117, 7-(ethylsulfonyl)-3-phenyl-N-((tetrahydro-2H-pyran-4-yl)methyl)-5,6,7,8-tetrahydroimidazo[1,5-a]pyrazine-1-carboxamide]	> 10000 nM	−		
CCS(=O)(=O)N1CCn2c(-c3ccccc3)nc(C(=O)NC3CCCCC3)c2C1 [Compound 118, N-cyclohexyl-7-(ethylsulfonyl)-3-phenyl-5,6,7,8-tetrahydroimidazo[1,5-a]pyrazine-1-carboxamide]		−	> 10000 nM	
CC12CCC(C1)C(C)(C)C2NC(=O)c1nc(-c2ccccc2)n2c1CN(C(=O)C1CC1)CC2 (stereo not drawn) [Compound 119, 7-(cyclopropanecarbonyl)-3-phenyl-N-(1,3,3-trimethyl-bicyclo [2.2.1]heptan-2-yl)-5,6,7,8-tetrahydroimidazo[1,5-a]pyrazine-1-carboxamide]		−	> 10000 nM	
CC12CCC(C1)C(C)(C)C2NC(=O)c1nc(-c2ccccc2)n2c1CN(C(=O)c1ccccc1)CC2 (stereo not drawn) [Compound 120, 7-benzoyl-3-phenyl-N-(1,3,3-trimethylbicyclo[2.2.1]heptan-2-yl)-5,6,7,8-tetrahydroimidazo[1,5-a]pyrazine-1-carboxamide]		+	> 10000 nM	
CC12CCC(C1)C(C)(C)C2NC(=O)c1nc(-c2ccccc2)n2c1CN(C(=O)C1CCOC1)CC2 (stereo not drawn) [Compound 121, 3-phenyl-7-(tetrahydrofuran-3-carbonyl)-N-(1,3,3-trimethylbicyclo[2.2.1]heptan-2-yl)-5,6,7,8-tetrahydroimidazo[1,5-a]pyrazine-1-carboxamide]		−	> 10000 nM	
CC12CCC(C1)C(C)(C)C2NC(=O)c1nc(-c2ccccc2)n2c1CN(C(=O)c1ccco1)CC2 (stereo not drawn) [Compound 122, 7-(furan-2-carbonyl)-3-phenyl-N-(1,3,3-trimethylbicyclo[2.2.1]heptan-2-yl)-5,6,7,8-tetrahydroimidazo[1,5-a]pyrazine-1-carboxamide]	> 10000 nM	−		
CC(C)(C)C(=O)N1CCn2c(-c3ccccc3)nc(C(=O)NC3C4(C)CCC(C4)C3(C)C)c2C1 (stereo not drawn) [Compound 123, 3-phenyl-7-pivaloyl-N-(1,3,3-trimethylbicyclo[2.2.1]heptan-2-yl)-5,6,7,8-tetrahydroimidazo[1,5-a]pyrazine-1-carboxamide]		−	> 10000 nM	
C[C@H](NC(=O)c1nc(-c2ccccc2)n2c1CN(C(=O)C1CC1)CC2)c1ccccc1 [Compound 124, (S)-7-(cyclopropanecarbonyl)-3-phenyl-N-(1-phenylethyl)-5,6,7,8-tetrahydroimidazo[1,5-a]pyrazine-1-carboxamide]		−	> 10000 nM	
C[C@H](NC(=O)c1nc(-c2ccccc2)n2c1CN(C(=O)c1ccccc1)CC2)c1ccccc1 [Compound 125, (S)-7-benzoyl-3-phenyl-N-(1-phenylethyl)-5,6,7,8-tetrahydroimidazo[1,5-a]pyrazine-1-carboxamide]		−	> 10000 nM	
CNC(=O)[C@@H](NC(=O)c1nc(-c2ccccc2)n2c1CN(C(=O)C1CC1)CC2)C(C)(C)C [Compound 126, (S)-7-(cyclopropanecarbonyl)-N-(3,3-dimethyl-1-(methylamino)-1-oxobutan-2-yl)-3-phenyl-5,6,7,8-tetrahydroimidazo[1,5-a]pyrazine-1-carboxamide]		−	> 10000 nM	
CNC(=O)[C@@H](NC(=O)c1nc(-c2ccccc2)n2c1CN(C(=O)c1ccccc1)CC2)C(C)(C)C [Compound 127, (S)-7-benzoyl-N-(3,3-dimethyl-1-(methylamino)-1-oxobutan-2-yl)-3-phenyl-5,6,7,8-tetrahydroimidazo[1,5-a]pyrazine-1-carboxamide]			> 10000 nM	> 10 µM
CNC(=O)[C@@H](NC(=O)c1nc(-c2ccccc2)n2c1CN(C(=O)c1ccco1)CC2)C(C)(C)C [Compound 128, (S)-N-(3,3-dimethyl-1-(methylamino)-1-oxobutan-2-yl)-7-(furan-2-carbonyl)-3-phenyl-5,6,7,8-tetrahydroimidazo[1,5-a]pyrazine-1-carboxamide]		−	> 10000 nM	

— patent publication US7517874B2 (priority 2007, dated 2009)
